We go through 11 compounds from patent publication US8809550B2, “Androgen receptor antagonists and uses thereof” (priority 2009, dated 2014).

One data set relates to 22RV1 cells. The data set can be described thus: Cell viability assay, 22RV1 cells. It counts as cell-based, human. The note with it: for cytotoxicity at 2.5 µM: Homo sapiens, read-out: Inhibition of cell viability, 22RV1 % inhibition at 2.5 uM. As for the experimental part: (§1) LNCaP and 22RV1 cells were maintained in RPMI 1640 medium supplemented with 10% fetal bovine serum (FBS), 100 U/mL penicillin, 100 μg/mL streptomycin, and 0.25 μg/mL amphotericin B, splitting cells when they reached 80-90% confluence. In order to test compounds, 10,000 cells/well were plated in 96 cell culture plates using 100 ul/well plating medium, cultured overnight at 37° C. in a cell culture incubator. After carefully remove plating medium, 80 ul/well of pre-warmed assay medium was added, followed by adding 10 ul/well test compounds or bicalutamide (final concentration from 20 uM to 0.1 uM), incubated at 37° C. for 30 minutes, then adding 10 ul/well freshly prepared Methyltrienolone (R1881, AR agonist) (final concentration 1 ng/ml) to each well, incubate at 37° C. for 48-hour. At the end of incubation, 20 μl MTT (2.5 mg/ml in PBS) was added to each well, and the cells were further incubated for 2 h at 37 C to allow a complete reaction between the dye and the enzyme mitochondrial dehydrogenase in the viable cells. After removal of the residual dye and medium, 100 μl dimethylsulfoxide was added to each well, and the absorbance at 570 nm was measured with an microplate reader. The fold induction over background by 1 nM R1881 in the absence of test compounds is standardized as 100% and experimental result is expressed as percentage of inhibition by testing compounds at 2.5 micromolar (uM).

Data set [1] deals with Prostate-specific Antigen (PSA) production in 22RV1 cells. The data set can be described thus: PSA assay: inhibition of PSA production in 22RV1 cells (ELISA). It counts as cell-based. The settings on record: Homo sapiens, 72 h, R1881 1 ng/ml, three days. On the procedure:
(§2) PSA Assay (Inhibition Test of the Compound of the Present Invention on Prostate-Specific Antigen (PSA) Production in Various Prostate Cancer Cells)
Androgen dependent LNCaP and 22RV1 cells were purchased from the American Type Culture Collection (ATCC, Manassas, Va.). These cells were grown in RPMI 1640 medium supplemented with 10% fetal bovine serum (FBS), 100 U/mL penicillin, 100 μg/mL streptomycin, and 0.25 μg/mL amphotericin B. The cells were maintained at 37° C. and 5% CO2. LNCaP cells between passage 20 and 35, and 22RV1 cells between passage 30 and 50 were used for experiments. LNCaP is a hormone sensitive cell line, while 22RV1 is a hormone refractory prostate cancer cell line, which derived from a primary prostate tumor. This cell line was isolated from a xenograft (CWR22R-2152) that was serially propagated in mice after castration-induced regression and relapse of the parental, androgen-dependent CWR xenograft. For the PSA assay, human prostate cancer cells LNCaP or 22RV1 were seeded in a 96-well plate at a concentration of 5000 cells/100 μl/well. On the following day, Methyltrienolone (R1881, AR agonist) (final concentration 1 ng/ml), test compounds or bicalutamide (Casodex®, AstraZeneca) (final concentration 0.005 to 20 μM) were added. Three days after the addition, the concentration of PSA in the supernatant of the culture solution was measured by ELISA. ELISAs for human PSA in culture medium were performed using the ultra-sensitive assay procedure and reagents in the Active™ PSA assay kit (Diagnostic Systems Laboratories Inc., Webster, Tex.). Culture medium and standards (200 μl/well) were incubated in antibody-coated plates for 2 h at room temperature on a Titer plate shaker at 500-600 rpm. Wells were then washed five times. The HRP conjugate was diluted 1:20 with assay buffer, and 100 μl was added to all wells. The plates were incubated for 30 min at room temperature on the shaker and washed as before, and 100 μl TMB (3,3′,5,5′-tetramethylbenzidine, 0.4 g/l) was added. The plates were incubated for 10 min on the shaker, and the reaction was terminated with 100 μl stop solution. The plates were read using a plate reader at 450 nm with a 650 nm reference filter. PSA levels were normalized for differences in growth of LNCaP or 22RV1 cells following various treatments as determined by the MTS assay. IC50 of PSA was calculated based on a seven point assay (concentrations of tested compound) and expressed as micromolar (uM). […] ND means not determined
A general note: ELISA stands for enzyme-linked immunosorbent assay.

A further data set relates to LNCaP cells. The data set can be described thus: Cell viability assay, LNCaP cells. It counts as cell-based. The settings on record: Homo sapiens, read-out: Inhibition of cell viability, LNCaP % inhibition at 2.5 uM. As for the experimental part:
as §1

The subject of data set [2] is Prostate-specific Antigen (PSA) production in LNCaP cells. The data set can be described thus: PSA assay: inhibition of PSA production in LNCaP cells (ELISA). The note with it: Homo sapiens; for pIC50: 72 h, R1881 1 ng/ml, three days, seven point assay. It counts as cell-based. On the procedure: as §2
Androgen dependent LNCaP and 22RV1 cells were purchased from the American Type Culture Collection (ATCC, Manassas, Va.). These cells were grown in RPMI 1640 medium supplemented with 10% fetal bovine serum (FBS), 100 U/mL penicillin, 100 μg/mL streptomycin, and 0.25 μg/mL amphotericin B. The cells were maintained at 37° C. and 5% CO2. LNCaP cells between passage 20 and 35, and 22RV1 cells between passage 30 and 50 were used for experiments. LNCaP is a hormone sensitive cell line, while 22RV1 is a hormone refractory prostate cancer cell line, which derived from a primary prostate tumor. This cell line was isolated from a xenograft (CWR22R-2152) that was serially propagated in mice after castration-induced regression and relapse of the parental, androgen-dependent CWR xenograft. For the PSA assay, human prostate cancer cells LNCaP or 22RV1 were seeded in a 96-well plate at a concentration of 5000 cells/100 μl/well. On the following day, Methyltrienolone (R1881, AR agonist) (final concentration 1 ng/ml), test compounds or bicalutamide (Casodex®, AstraZeneca) (final concentration 0.005 to 20 μM) were added. Three days after the addition, the concentration of PSA in the supernatant of the culture solution was measured by ELISA. ELISAs for human PSA in culture medium were performed using the ultra-sensitive assay procedure and reagents in the Active™ PSA assay kit (Diagnostic Systems Laboratories Inc., Webster, Tex.). Culture medium and standards (200 μl/well) were incubated in antibody-coated plates for 2 h at room temperature on a Titer plate shaker at 500-600 rpm. Wells were then washed five times. The HRP conjugate was diluted 1:20 with assay buffer, and 100 μl was added to all wells. The plates were incubated for 30 min at room temperature on the shaker and washed as before, and 100 μl TMB (3,3′,5,5′-tetramethylbenzidine, 0.4 g/l) was added. The plates were incubated for 10 min on the shaker, and the reaction was terminated with 100 μl stop solution. The plates were read using a plate reader at 450 nm with a 650 nm reference filter. PSA levels were normalized for differences in growth of LNCaP or 22RV1 cells following various treatments as determined by the MTS assay. IC50 of PSA was calculated based on a seven point assay (concentrations of tested compound) and expressed as micromolar (uM). Results on 22RV1 cells are shown as percent inhibition at 2 micromolar (uM). ND means not determined

Setting [3] is: 22RV1 cells, 2.5 uM, R1881 1 ng/ml, 48-hour.
Where [4] appears, read: LNCaP cells, 2.5 uM, R1881 1 ng/ml, 48-hour.

SMILES strings stand for the structures. pIC50: −log10 of the molar value. Where two headings read alike, the source gives them in different places.

As usually defined, the inhibition is the share of the control response that was lost under treatment. The pIC50 is the IC50 on a negative log10 scale, so that one unit is a factor of ten. As for `CC(O)(CS(=O)(=O)c1ccc(F)cc1)C(=O)Nc1ccc(C#N)c(C(F)(F)F)c1` (stereo not shown) [Bicalutamide, bicalutamide, reference compound], in the data set with 22RV1 cells (setting [3]), the “Inhibition of cell viability, 22RV1 % inhibition at 2.5 uM” value is recorded as less than 10% and the cytotoxicity at 2.5 µM is less than 10%. This compound also had an inhibition at 2 µM in data set [1] of 18%. Besides, the cytotoxicity at 2.5 µM in the data set on LNCaP cells (setting [4]) was found to be 21%. In data set [2] (1 micromolar (summary text b205)), this compound returned an inhibition at 1 µM of 34%. This compound gave a pIC50 in data set [2] of 5.51.

As to `CNC(=O)c1ccc(N2C(=S)N(c3ccc(C#N)cc3Cl)C(=O)C23CCC3)cc1F` [Example 1, 4-[7-(2-Chloro-4-cyano-phenyl)-8-oxo-6-thioxo-5,7-diaza-spiro[3.4]oct-5-yl]-2-fluoro-N-methyl-benzamide], the cytotoxicity at 2.5 µM with 22RV1 cells (22Rv1, 48 h) amounted to 31%; in the data set on LNCaP cells (LNCaP, 48 h) it was 70%. In addition, 2 µM produced 48% inhibition in data set [1]. In data set [2], this compound gave a pIC50 of 5.62.

For the compound `CNC(=O)c1ccc(N2C(=S)N(c3ccc(C#N)c(OC)c3)C(=O)C23CCC3)cc1F` [Example 2, 4-[7-(4-Cyano-3-methoxy-phenyl)-8-oxo-6-thioxo-5,7-diaza-spiro[3.4]oct-5-yl]-2-fluoro-N-methyl-benzamide], the cytotoxicity at 2.5 µM in the data set on 22RV1 cells (22Rv1, 48 h) was found to be 41%; in the data set on LNCaP cells (LNCaP, 48 h), 59%. Also, 2 µM produced 47% inhibition in data set [1]. Besides, the pIC50 in data set [2] is 6.35.

In the case of `CNC(=O)c1ccc(N2C(=S)N(c3ccc(C#N)c(Cl)c3F)C(=O)C23CCC3)cc1F` [Example 8, 4-[7-(3-Chloro-4-cyano-2-fluoro-phenyl)-8-oxo-6-thioxo-5,7-diaza-spiro[3.4]oct-5-yl]-2-fluoro-N-methyl-benzamide], the cytotoxicity at 2.5 µM with 22RV1 cells (22Rv1, 48 h) is 59%; with LNCaP cells (LNCaP, 48 h) it was 86%. The same compound had an inhibition at 2 µM in data set [1] of 77%. The compound also showed a pIC50 in data set [2] of 6.07.

For `CNC(=O)c1ccc(N2C(=S)N(c3ccc(C#N)c(C(F)(F)F)c3F)C(=O)C23CCC3)cc1F` [Example 10, 4-[7-(4-Cyano-2-fluoro-3-trifluoromethyl-phenyl)-8-oxo-6-thioxo-5,7-diaza-spiro[3.4]oct-5-yl]-2-fluoro-N-methyl-benzamide], the cytotoxicity at 2.5 µM in the data set with 22RV1 cells (22Rv1, 48 h) was found to be 69%; with LNCaP cells (LNCaP, 48 h) it was 91%. For the same compound, testing at 2 µM in data set [1] gave an inhibition of 78%. This compound also had a pIC50 in data set [2] of 6.42.

On to `CNC(=O)c1ccc(N2C(=S)N(c3ccc(C#N)c(Cl)c3F)C(=O)C2(C)C)cc1F` [Example 11, 4-[3-(3-Chloro-4-cyano-2-fluoro-phenyl)-5,5-dimethyl-4-oxo-2-thioxo-imidazolidin-1-yl]-2-fluoro-N-methyl-benzamide], for which the cytotoxicity at 2.5 µM stood at 56% in the data set with 22RV1 cells (22Rv1, 48 h) and 85% in the data set with LNCaP cells (LNCaP, 48 h). This compound also registered an inhibition at 2 µM in data set [1] of 81%. In data set [2], the pIC50 is 6.64.

With `CC1(C)C(=O)N(c2ccc(C#N)c(Cl)c2F)C(=S)N1c1ccc(C#N)cc1` [Example 18, 4-(4,4-Dimethyl-5-oxo-2-thioxo-3-p-cyanophenyl-imidazolidin-1-yl)-3-fluoro-2-chloro-benzonitrile], the cytotoxicity at 2.5 µM was determined as 57% in the data set with 22RV1 cells (22Rv1, 48 h) and 91% in the data set on LNCaP cells (LNCaP, 48 h). Further, the inhibition at 2 µM in data set [1] turned out to be 89%. The same compound gave a pIC50 in data set [2] of 7.04.

Turning to `COc1c(C#N)ccc(N2C(=O)C(C)(C)N(c3ccc(F)cc3)C2=S)c1F` [Example 19, 3-Fluoro-4-[3-(4-fluoro-phenyl)-4,4-dimethyl-5-oxo-2-thioxo-imidazolidin-1-yl]-2-methoxy-benzonitrile], the cytotoxicity at 2.5 µM in the data set with 22RV1 cells (setting [3]) amounted to 63%; in the data set with LNCaP cells (setting [4]), 87%. In addition, the inhibition at 2 µM in data set [1] stood at 72%. This compound gave a pIC50 in data set [2] of 6.54.

For `COc1c(C#N)ccc(N2C(=O)C(C)(C)N(c3ccc(C)nc3)C2=S)c1F` [Example 20, 4-[4,4-Dimethyl-3-(6-methyl-pyridin-3-yl)-5-oxo-2-thioxo-imidazolidin-1-yl]-3-fluoro-2-methoxy-benzonitrile], the cytotoxicity at 2.5 µM in the data set with 22RV1 cells (22Rv1, 48 h) came to 44%; in the data set with LNCaP cells (LNCaP, 48 h), 68%. In addition, testing at 2 µM in data set [1] gave an inhibition of 69%. This compound also showed a negative-log IC50 (pIC50) in data set [2] of 6.55.

For the compound `Cc1ccc(N2C(=S)N(c3ccc(C#N)c(C#N)c3)C(=O)C2(C)C)cc1` [Example 24, 4-(4,4-Dimethyl-5-oxo-2-thioxo-3-p-tolyl-imidazolidin-1-yl)-phthalonitrile], the cytotoxicity at 2.5 µM in the data set on 22RV1 cells (22Rv1, 48 h) came to 27%; in the data set with LNCaP cells (LNCaP, 48 h), 47%. The compound also showed an inhibition at 2 µM in data set [1] of 91%. In data set [2], this compound had a pIC50 of 6.70.

With `COc1c(C#N)ccc(N2C(=O)C(C)(C)N(c3ccc(C#N)cc3)C2=S)c1F` [Example 32, 4-(4,4-Dimethyl-5-oxo-2-thioxo-3-p-cyanophenyl-imidazolidin-1-yl)-3-fluoro-2-methoxy-benzonitrile], the figures for the cytotoxicity at 2.5 µM in the data set with 22RV1 cells (setting [3]) and with LNCaP cells (setting [4]) were 64% and 87%, respectively. For the same compound, the inhibition at 2 µM in data set [1] amounted to 88%. Besides, the pIC50 in data set [2] is 6.92.
